Measurements from patent publication US20220041641A1, “QUATERNARY AMMONIUM SALTS AS INHIBITORS OF TRIMETHYLAMINE PRODUCTION” (Senda Biosciences, Inc., priority 2018, published 2022).
Where a name gives a salt, the structure may show the parent alone.

Experiments:
[1] = type: in vitro ADME; conditions: simulated gi fluid, 1 µM, pH 6.7
Method: This assay was used to assess the stability of a conjugate in a small intestine.
Phosphate buffer was prepared by dissolving 0.42 g of sodium hydroxide pellets and 3.95 g of monobasic sodium phosphate monohydrate and 6.19 g of sodium chloride in ultrapure water (MilliQ®, Millipore Sigma, Darmstadt, Germany). The pH was adjusted to 6.7 using aq. HCl and aq. NaOH, as necessary, and the solution was diluted with ultrapure water to produce 1 L of the pH 6.7 buffer.
112 mg FaSSIF powder (Biorelevant™, London, UK) was dissolved in 50 mL of the pH 6.7 buffer. 2 to 3 mL of the resulting solution were then added to 500 mg pancreatin (Millipore Sigma, Darmstadt, Germany). The resulting mixture was agitated by finger tapping the vessel containing the mixture until milky suspension formed. At this time, the remainder of the 50 mL FaSSiF/pH 6.7 buffer solution was added. The resulting suspension was flipped upside down 10 times to produce SIF, which was used fresh.
(§1) Test compounds were dissolved in DMSO stock to 1 mM. An aliquot of the DMSO stock solution was removed and diluted in the SIF media in 15 mL falcon tubes to produce a mixture with a tested compound concentration of 1 μM. A 1 mL aliquot was immediately removed and diluted once with 1 volume of acetonitrile for T0 timepoint. The mixture was sealed and agitated at 37° C. in an incubator. Aliquots (1 mL) were removed at regular intervals and immediately quenched by the addition of 1 volume of acetonitrile. The resulting samples were analyzed by LCMS to determine degradation rates.

[2] = type: in vitro ADME; conditions: 1 µM
Method: This assay was used to assess the stability of a conjugate in a large intestine.
All experiments were performed in an anaerobic chamber containing 90% nitrogen, 5% hydrogen and 5% carbon dioxide. Colonic material was resuspended as a slurry (15% w/v final concentration) in pre-reduced, anaerobically sterilized dilution blanks (Anaerobe Systems AS-908). The colonic material was then inoculated into 96 well plates containing YCFAC media (Anaerobe Systems AS-680, 6.7 μL slurry into 1 mL total media). A compound was added to each individual well to reach a final analyte concentration of 1 μM, and the material was mixed by pipetting. Each sample was removed after set timepoints (0, 120, 240, 480, 1440, 2880 minutes after initiation of the assay), quenched with acetonitrile containing internal standard, and analyzed by LCMS.

[3] = type: in vitro ADME; conditions: simulated gi fluid, 1 µM, pH 1.6
Method: This assay was used to assess the stability of a conjugate in a stomach.
Medium was prepared by dissolving 2 g of sodium chloride in 0.6 L in ultrapure water (MilliQ®, Millipore Sigma, Darmstadt, Germany). The pH was adjusted to 1.6 with 1N hydrochloric acid, and the volume was then adjusted to 1 L with purified water.
60 mg FaSSIF powder (Biorelevant™, London, UK) were dissolved in 500 mL buffer (above). Pepsin was added (0.1 mg/mL) (Millipore Sigma, Darmstadt, Germany), and the solution was stirred. The resulting SGF media were used fresh for each experiment.
as §1, with “SGF Media” for “SIF media”, “generate” for “produce”, “total” for “mixture with a tested”, “mixed” for “agitated”, “rates in SGF.” for “rates.”

[4] = Caco-2 permeability assay; type: in vitro ADME; conditions: human, Caco-2, pH 7.4
Method: Preparation of Caco-2 Cells: 50 μL and 25 mL of cell culture medium were added to each well of the Transwell insert and reservoir, respectively. The HTS transwell plates were incubated at 37° C., 5% CO2 for 1 hour before cell seeding. […] Cell culture medium was replaced every other day, beginning no later than 24 hours after initial plating.
Assessment of Cell Monolayer Integrity: Medium was removed from the reservoir and each Transwell insert and replaced with prewarmed fresh culture medium. Transepithelial electrical resistance (TEER) across the monolayer was measured using Millicell Epithelial Volt-Ohm measuring system (Millipore, USA). The Plate was returned to the incubator once the measurement was done. The TEER value was calculated according to the following equation: […]
Preparation of Solutions: 2 mM stock solutions in DMSO of control compounds were prepared and diluted with HBSS (10 mM HEPES, pH 7.4) to get 10 μM working solution. 0.2 mM stock solutions of test compounds in DMSO were prepared and diluted with HBSS (10 mM HEPES, pH 7.4 with 0.5% BSA) to get 1 μM working solution. Metoprolol, erythromycin and cimetidine were used as control compounds.
The Caco-2 plate was removed from the incubator. The monolayer was washed twice with pre-warmed HBSS (10 mM HEPES, pH 7.4). The plate was incubated at 37° C. for 30 minutes. To determine the rate of drug transport in the apical to basolateral direction, 125 μL of the working solution was added to the Transwell insert (apical compartment). A 50 μL sample was transferred immediately from the apical compartment to 200 μL of acetonitrile containing IS (100 nM alprazolam, 200 nM Caffeine and 100 nM tolbutamide) in a new 96-well plate as the initial donor sample (A-B) and it was vortexed at 1000 rpm for 10 minutes. The wells in the receiver plate (basolateral compartment) were filled with 235 μL of transport buffer. To determine the rate of drug transport in the basolateral to apical direction, 285 μL of the working solution were added to the receiver plate wells (basolateral compartment). A 50 μL sample was transferred immediately from the basolateral compartment to 200 μL of acetonitrile containing IS (100 nM alprazolam, 200 nM Caffeine and 100 nM tolbutamide) in a new 96-well plate as the initial donor sample (B-A) and it was vortexed at 1000 rpm for 10 minutes. The Transwell insert (apical compartment) was filled with 75 μL of transport buffer. The apical to basolateral direction and the basolateral to apical direction need to be done at the same time. The plates were incubated at 37° C. for 2 hours. At the end of the incubation, 50 μL samples from donor sides (apical compartment for Ap→Bl flux, and basolateral compartment for B1→Ap) and receiver sides (basolateral compartment for Ap→Bl flux, and apical compartment for B1→Ap) were transferred to wells of a new 96-well plate, followed by the addition of 4 volume of acetonitrile containing IS (100 nM alprazolam, 200 nM Caffeine and 100 nM tolbutamide). Samples were vortexed for 10 minutes, 50 μL samples were transferred to wells of a new 96-well plate, followed by the addition of 50 μL Hepes and 200 μL IS. All samples were vortexed for 10 minutes, and then centrifuged at 3,220 g for 40 minutes. An aliquot of 150 μL of the supernatant was mixed with an appropriate volume of ultra-pure water before LC-MS/MS analysis.
Apparent permeability (Papp) can be calculated for drug transport assays using the following equation: […]
Papp is apparent permeability (cm/s×10^−6);
Papp (B-A) indicates the apparent permeability coefficient in basolateral to apical direction, and
Papp (A-B) indicates the apparent permeability coefficient in apical to basolateral direction.

CutC/D enzyme = assay: Acute mouse model (plasma TMAO on choline diet); type: in vivo, male C57BL/6 mice
How it was run: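 Male C57BL/6 mice fed a diet with 1.0% choline (g/g) received compound in water by oral gavage once daily on days 1–3. Plasma taken 20 h after the last dose was protein-precipitated and TMAO quantified by LC-MS/MS against a 0.05-100 μM d9-TMAO calibration curve in control plasma.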

in vivo = assay: in vivo; set-up: species or system Sprague-Dawley rats; conditions: Sprague-Dawley, rat
Method: Sprague-Dawley rats (three rats per compound) were treated with a single intravenous (IV) 1 mg/kg dose or orally (PO) a single 10 mg/kg dose. Plasma concentrations of the conjugates were determined by LCMS at 5 minutes, 15 minutes, 30 minutes, 1 hour, 2 hours, 4 hours, 8 and 24 hours post compound administration. […] In addition, the plasma exposure and bioavailability of the active agent of was lower when dosed as a conjugate instead of the active agent alone.

[5] = biological target: CutC from Proteus mirabilis (Proteus mirabilis, UniProt B4EYG1); assay: Cell-based assay for TMA production from a native producer (P. mirabilis); conditions: d9-TMA from 1 mM d9-choline, 5 h, 37° C.; value 10 given when no fit or % TMA remaining at 10 μM higher than 15%; read-out: Average IC50 Whole cell P. mirabilis
How it was run: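 Overnight anaerobic cultures of P. mirabilis or C. sporogenes, grown in BHI with 1 mM choline, were diluted and given 1 mM (trimethyl-d9)-choline plus compound at 10 μM final. After 5 h at 37° C., d9-TMA was quantified by LCMS.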

CutC from Proteus mirabilis, sequence (B4EYG1 entry or part of it): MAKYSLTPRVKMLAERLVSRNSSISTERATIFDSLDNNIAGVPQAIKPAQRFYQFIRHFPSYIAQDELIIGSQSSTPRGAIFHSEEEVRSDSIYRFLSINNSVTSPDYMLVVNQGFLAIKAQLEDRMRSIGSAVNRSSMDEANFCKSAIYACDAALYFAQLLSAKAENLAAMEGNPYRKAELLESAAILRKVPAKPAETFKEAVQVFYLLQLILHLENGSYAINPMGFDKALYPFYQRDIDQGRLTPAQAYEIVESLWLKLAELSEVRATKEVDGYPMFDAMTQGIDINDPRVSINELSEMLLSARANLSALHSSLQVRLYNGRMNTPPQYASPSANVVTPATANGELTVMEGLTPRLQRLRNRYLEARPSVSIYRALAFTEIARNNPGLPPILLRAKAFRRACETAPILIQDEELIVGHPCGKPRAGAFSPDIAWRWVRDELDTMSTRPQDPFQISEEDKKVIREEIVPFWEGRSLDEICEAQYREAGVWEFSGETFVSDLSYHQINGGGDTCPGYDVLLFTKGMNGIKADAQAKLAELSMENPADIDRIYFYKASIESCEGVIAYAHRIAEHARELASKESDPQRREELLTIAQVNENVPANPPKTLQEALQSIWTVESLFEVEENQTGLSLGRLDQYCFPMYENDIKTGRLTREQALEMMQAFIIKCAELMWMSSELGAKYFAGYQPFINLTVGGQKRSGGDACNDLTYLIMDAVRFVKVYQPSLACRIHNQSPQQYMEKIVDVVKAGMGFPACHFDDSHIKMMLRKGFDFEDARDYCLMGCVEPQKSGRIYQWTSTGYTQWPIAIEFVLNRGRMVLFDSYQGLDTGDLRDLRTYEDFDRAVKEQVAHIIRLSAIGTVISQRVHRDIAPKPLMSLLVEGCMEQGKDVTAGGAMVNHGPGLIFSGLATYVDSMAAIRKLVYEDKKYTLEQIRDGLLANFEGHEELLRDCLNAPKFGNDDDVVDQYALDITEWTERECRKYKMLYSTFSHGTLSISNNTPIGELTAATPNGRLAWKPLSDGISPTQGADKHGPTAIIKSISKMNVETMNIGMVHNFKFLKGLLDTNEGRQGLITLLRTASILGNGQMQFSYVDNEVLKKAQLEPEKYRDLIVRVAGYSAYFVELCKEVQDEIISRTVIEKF
CutC from Proteus mirabilis, sequence (B4EYG0 entry or part of it, further chain): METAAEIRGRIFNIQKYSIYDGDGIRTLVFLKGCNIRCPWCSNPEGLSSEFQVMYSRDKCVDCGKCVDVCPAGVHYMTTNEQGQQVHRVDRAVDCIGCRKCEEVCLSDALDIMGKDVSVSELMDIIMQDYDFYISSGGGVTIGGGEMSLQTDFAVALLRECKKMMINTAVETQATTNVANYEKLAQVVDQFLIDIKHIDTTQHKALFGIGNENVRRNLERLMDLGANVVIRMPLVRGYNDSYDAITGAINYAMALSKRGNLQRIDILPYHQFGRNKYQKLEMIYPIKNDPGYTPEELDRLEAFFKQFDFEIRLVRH

SMILES: C#CC[N+](C)(C)CCO[C@@H]1O[C@H](COC(=O)CCC)[C@@H](OC(=O)CCC)[C@H](OC(=O)CCC)[C@H]1OC(=O)CCC.[I-] [Compound 1, N,N-dimethyl-N-(2-(((2R,3R,4S,5R,6R)-3,4,5-tris(butyryloxy)-6-((butyryloxy)methyl)tetrahydro-2H-pyran-2-yl)oxy)ethyl)prop-2-yn-1-aminium iodide]
- Assay 2- FaSSIF Stability: % Remaining at 4 hr [1]: 30.79%
- Assay 3- Colonic Material Stability Assay % Remaining at 24 hr [2]: 80%
- Assay 1- FaSSGF Stability: % Remaining at 1 hr [3]: 84.79%

SMILES: C#CC[N+](C)(C)CCO[C@@H]1O[C@H](COC(C)=O)[C@@H](OC(C)=O)[C@H](OC(C)=O)[C@H]1OC(C)=O.[I-] [Compound 7, N,N-dimethyl-N-(2-(((2R,3R,4S,5R,6R)-3,4,5-triacetoxy-6-(acetoxymethyl)tetrahydro-2H-pyran-2-yl)oxy)ethyl)prop-2-yn-1-aminium Iodide]
- Papp A→B at 2 h, 1 µM [4]: 0.1 ×10⁻⁶ cm/s
- Papp B→A at 2 h, 1 µM [4]: 0.15 ×10⁻⁶ cm/s
- % change from vehicle control + choline diet (CutC/D enzyme; Table 4a, 358 mg/kg oral gavage days 1-3): −79.95%
- Mean plasma TMAO (CutC/D enzyme; Table 4a, 358 mg/kg oral gavage days 1-3, plasma 20 h after last gavage): 6.90 µM
- % change from vehicle control + choline diet (CutC/D enzyme; Table 4c, 35.8 mg/kg oral gavage days 1-3): −2.97%
- Mean plasma TMAO (CutC/D enzyme; Table 4c, 35.8 mg/kg oral gavage days 1-3, plasma 20 h after last gavage): 20.4 µM
- % change from vehicle control + choline diet (CutC/D enzyme; Table 4c, 107 mg/kg oral gavage days 1-3): −24.83%
- Mean plasma TMAO (CutC/D enzyme; Table 4c, 107 mg/kg oral gavage days 1-3, plasma 20 h after last gavage): 15.8 µM
- % change from vehicle control + choline diet (CutC/D enzyme; Table 4c, 358 mg/kg oral gavage days 1-3): −69.46%
- Mean plasma TMAO (CutC/D enzyme; Table 4c, 358 mg/kg oral gavage days 1-3, plasma 20 h after last gavage): 6.41 µM
- Cmax (in vivo; iv, 1 mg/kg): 19.7 µM
- Cmax (in vivo; po, 10 mg/kg): 0.0162 µM
- bioavailability (in vivo; po, 10 mg/kg): 1.1%
- IC50 [5]: 3.16 µM

SMILES: C#CC[N+](C)(C)CCO[C@@H]1CO[C@H]2[C@@H]1OC[C@@H]2O [Compound 72, N-(2-(((3R,3aR,6S,6aR)-6-hydroxyhexahydrofuro[3,2-b]furan-3-yl)oxy)ethyl)-N,N-dimethylprop-2-yn-1-aminium trifluoroacetate]
- Assay 3- Colonic Material Stability Assay % Remaining at 24 hr [2]: 110%
- IC50 [5]: ≥ 10 µM
- Assay 1- FaSSGF Stability: % Remaining at 1 hr [3]: 102.71%

SMILES: CC(=O)OC[C@H]1O[C@@H](OCC[N+](C)(CF)C2CC2)[C@H](OC(C)=O)[C@@H](OC(C)=O)[C@@H]1OC(C)=O.[I-] (stereo partly drawn) [Compound 86, N-(fluoromethyl)-N-methyl-N-(2-{[(2R,3R,4S,5R,6R)-3,4,5-tris(acetyloxy)-6-[(acetyloxy)methyl]oxan-2-yl]oxy}ethyl)cyclopropanaminium Iodide]
- Assay 3- Colonic Material Stability Assay % Remaining at 24 hr [2]: 56%
- % change from vehicle control + choline diet (CutC/D enzyme; Table 4g, 37.3 mg/kg oral gavage days 1-3): −33%
- Mean plasma TMAO (CutC/D enzyme; Table 4g, 37.3 mg/kg oral gavage days 1-3, plasma 20 h after last gavage): 18.6 µM
- % change from vehicle control + choline diet (CutC/D enzyme; Table 4g, 112 mg/kg oral gavage days 1-3): −83%
- Mean plasma TMAO (CutC/D enzyme; Table 4g, 112 mg/kg oral gavage days 1-3, plasma 20 h after last gavage): 4.72 µM
- IC50 [5]: ≥ 10 µM

SMILES: C#CC[N+](C)(C)CC(=O)O[C@@H]1O[C@H](COC(C)=O)[C@@H](OC(C)=O)[C@H](OC(C)=O)[C@H]1OC(C)=O [Compound 303, N,N-dimethyl-N-(2-oxo-2-(((2S,3R,4S,5R,6R)-3,4,5-triacetoxy-6-(acetoxymethyl)tetrahydro-2H-pyran-2-yl)oxy)ethyl)prop-2-yn-1-aminium Trifluoroacetate]
- Assay 2- FaSSIF Stability: % Remaining at 4 hr [1]: 0.03%
- Assay 3- Colonic Material Stability Assay % Remaining at 24 hr [2]: 0.16%
- Assay 1- FaSSGF Stability: % Remaining at 1 hr [3]: 60.49%

SMILES: C#CC[N+](C)(C)CC(=O)OC[C@H]1OC(OC(C)=O)[C@H](OC(C)=O)[C@@H](OC(C)=O)[C@@H]1OC(C)=O.O=C([O-])C(F)(F)F (stereo partly drawn) [Compound 304, N,N-dimethyl-N-(2-oxo-2-(((2R,3R,4S,5R)-3,4,5,6-tetraacetoxytetrahydro-2H-pyran-2-yl)methoxy)ethyl)prop-2-yn-1-aminium Trifluoroacetate]
- Assay 2- FaSSIF Stability: % Remaining at 4 hr [1]: 13.44%
- Assay 3- Colonic Material Stability Assay % Remaining at 24 hr [2]: 0.94%
- Assay 1- FaSSGF Stability: % Remaining at 1 hr [3]: 114.28%
